The values that follow come from ChEMBL document CHEMBL3507680, “University of Dundee, Gates Library screen for HepG2 cell viability”.

A short description of the data set: Human HepG2 cell viability assay in 384 well format. The following applies: HepG2 cells, read-out: Inhibition. The class given is toxicity, cell-based. Set-up: dose 125 nL, time 70.5 hour; cytotoxicity at 70.5 h: concentration not given beside the values.
For the compound `Cc1cc(C)n(CC2CCCN2C(=O)c2nccc3ccccc23)n1` (stereo unspecified), the cytotoxicity at 70.5 h was -0.984%.

Turning to `CCCn1[nH]cc/c1=N\C(=O)CN1CCc2c(nc(C3CC3)n2C)C1`, the cytotoxicity at 70.5 h was -9.16%.

On to `Cc1cnn(CC2CCCN2C(=O)c2cc3ccccc3c(=O)[nH]2)c1` (stereo unspecified), for which the cytotoxicity at 70.5 h is -12.3%.

Turning to `CC(Cn1cccn1)NC(=O)NCc1ccc(C(N)=O)cc1` (stereo unspecified), the cytotoxicity at 70.5 h was -15.4%.

As to `Cc1cc(CN2CCN(C(=O)c3sccc3C3CC3)CC2)no1`, the cytotoxicity at 70.5 h was -7.26%.

Consider `Cc1ccc(C(=O)NC2CCN(C(=O)Nc3ccncc3)CC2)o1`, for which the cytotoxicity at 70.5 h was -13.5%.

Turning to `CCn1ccnc1CN1CCN(CC(O)c2cccc(F)c2)CC1` (stereo unspecified), the cytotoxicity at 70.5 h was -5.97%.

`Cc1cnn(CC2CN(Cc3nc4ccccc4o3)CCO2)c1` (stereo unspecified): the cytotoxicity at 70.5 h is -12.1%.

With `Cc1cnn(CC2CN(Cc3nc(C)c4ccccc4n3)CCO2)c1` (stereo unspecified), the cytotoxicity at 70.5 h is -7.25%.

In the case of `CC(C)c1nc2c(n1C)CCN(CC(=O)Nc1cccnc1)C2`, the cytotoxicity at 70.5 h was -9.65%.

Turning to `Cc1ccc(C(O)CN2CCN(Cc3nccn3C)CC2)cc1C` (stereo unspecified), the cytotoxicity at 70.5 h was found to be 2%.

As for `CC(C)Oc1ccc(C(=O)N2CCC(Nc3cccnn3)CC2)cn1`, the cytotoxicity at 70.5 h is -5.88%.

`O=C(c1ccc(NC2CC2)nc1)N1CCC(Nc2cccnn2)CC1`: the cytotoxicity at 70.5 h is -8.71%.

On to `Cc1cnn(CC2CCCCN2C(=O)c2nccnc2N)c1` (stereo unspecified), for which the cytotoxicity at 70.5 h was -4.52%.

For `CC(C)c1nc2c(n1C)CCN(CC(=O)Nc1ccncc1)C2`, the cytotoxicity at 70.5 h is -7.84%.

In the case of `O=C(c1ccccc1-n1cccn1)N1CCC(Nc2cccnn2)CC1`, the cytotoxicity at 70.5 h was -8.8%.

Regarding `O=C(CCc1c(F)cccc1F)N1CCCCC1Cn1cccn1` (stereo unspecified), the cytotoxicity at 70.5 h amounted to 1.38%.

In the case of `O=C(CCc1ccccc1)N1CCCCC1Cn1cccn1` (stereo unspecified), the cytotoxicity at 70.5 h came to 11.8%.

Turning to `O=C(CCc1ccc2c(c1)OCO2)N1CCCCC1Cn1cccn1` (stereo unspecified), the cytotoxicity at 70.5 h is -8.55%.

Regarding `Cc1cnn(CC2CCCN2C(=O)c2nccnc2N)c1` (stereo unspecified), the cytotoxicity at 70.5 h was -6.62%.

Consider `CCC1CCCCN1C(=O)c1ccnc(N(C)C)c1` (stereo unspecified), for which the cytotoxicity at 70.5 h was -0.362%.

In the case of `O=C(NCCCn1ccnc1)NCC(c1ccco1)N1CCCC1` (stereo unspecified), the cytotoxicity at 70.5 h was found to be 5.06%.

As to `CCc1nc(C2CCCN(C(=O)c3cccc(Cl)c3)C2)no1` (stereo unspecified), the cytotoxicity at 70.5 h was -1.41%.

`CCn1cc(NC(=O)NCC(C)(C)N2CCc3ccccc3C2)cn1`: the cytotoxicity at 70.5 h was found to be 13.8%.

`CCN(Cc1ccccc1)Cc1nc2c(cnn2C)c(=O)[nH]1`: the cytotoxicity at 70.5 h amounted to 17%.

Take `O=C(NCc1ccnc(-n2cccn2)c1)C1CC(=O)N(CC2CC2)C1` (stereo unspecified): the cytotoxicity at 70.5 h is -8.83%.

Consider `CN(C)c1cc(C(=O)N2CCCCC2CNS(C)(=O)=O)ccn1` (stereo unspecified), for which the cytotoxicity at 70.5 h was 0.448%.

With `O=C(NCCCn1cccn1)NCC(c1ccco1)N1CCCC1` (stereo unspecified), the cytotoxicity at 70.5 h was -2.3%.

Consider `CCC(CNC(=O)Nc1cnn(CC)c1)N1CCc2ccccc2C1` (stereo unspecified), for which the cytotoxicity at 70.5 h is -4.26%.

With `CCN(Cc1nc2c(cnn2C)c(=O)[nH]1)Cc1ccccc1Cl`, the cytotoxicity at 70.5 h came to 0.498%.

`CCN(Cc1cccc(C)c1)Cc1nc2c(cnn2C)c(=O)[nH]1`: the cytotoxicity at 70.5 h was -2.57%.

On to `CCN(Cc1cccc(F)c1)Cc1nc2c(cnn2C)c(=O)[nH]1`, for which the cytotoxicity at 70.5 h came out at 14.7%.

Take `CCN(Cc1ccc(OC)c(F)c1)Cc1nc2c(cnn2C)c(=O)[nH]1`: the cytotoxicity at 70.5 h was -1.49%.

Regarding `CS(=O)(=O)N1CCN(CC(O)COc2ccc(Cl)cc2)CC1` (stereo unspecified), the cytotoxicity at 70.5 h was determined as 0.0303%.

For the compound `NC(=O)Cn1cc(NC(=O)NCCN2CCc3ccccc3C2)cn1`, the cytotoxicity at 70.5 h is -5.44%.

For the compound `Cc1nc2c(c(C)c1CC(=O)NCc1ccc(F)cc1)c(=O)[nH]n2C`, the cytotoxicity at 70.5 h stood at 21.3%.

`O=C(CCc1ccc(Cl)s1)N1CCC(N2CCNC2=O)CC1`: the cytotoxicity at 70.5 h was -3.74%.

`Cc1nc2c(c(C)c1CC(=O)NCc1ccco1)c(=O)[nH]n2C`: the cytotoxicity at 70.5 h is -3.09%.

For the compound `CCc1nc(C2CCCN(C(=O)c3ccc4[nH]cnc4c3)C2)no1` (stereo unspecified), the cytotoxicity at 70.5 h stood at 12.5%.

Regarding `CCOC1CCN(C(=O)NCCc2ccn(-c3ccccc3)n2)CC1`, the cytotoxicity at 70.5 h was -2.77%.

In the case of `CCc1nc(C2CCCN(C(=O)c3ccncc3)C2)no1` (stereo unspecified), the cytotoxicity at 70.5 h was -1.21%.

For `Cc1cnn(CC2CCCCN2C(=O)c2cccc(C(N)=O)c2)c1` (stereo unspecified), the cytotoxicity at 70.5 h was -1.63%.

For the compound `Cc1cnn(CC2CCCCN2C(=O)c2ccc3[nH]c(=O)[nH]c3c2)c1` (stereo unspecified), the cytotoxicity at 70.5 h is -0.746%.

As to `CC(=O)Nc1nc(C(=O)N2CCCC2Cn2cccn2)cs1` (stereo unspecified), the cytotoxicity at 70.5 h was -0.875%.

Consider `Cc1cnn(CC2CCCCN2C(=O)c2ccc(CN(C)C)cc2)c1` (stereo unspecified), for which the cytotoxicity at 70.5 h was -8.06%.

For `Cc1cnn(CC2CCCCN2C(=O)c2ccc(N(C)C)nc2)c1` (stereo unspecified), the cytotoxicity at 70.5 h was determined as 0.883%.

As for `CC(=O)Nc1nc(C(=O)N2CCCCC2Cn2cccn2)cs1` (stereo unspecified), the cytotoxicity at 70.5 h is -0.594%.

Consider `CCn1c(C)nnc1CN(C)C1CCN(CCOc2ccccc2)C1` (stereo unspecified), for which the cytotoxicity at 70.5 h came out at 29.3%.

Take `Cc1nc(C)n(CC2CCCN(CCC(=O)NC3CCCC3)C2)n1` (stereo unspecified): the cytotoxicity at 70.5 h is 24.8%.

As to `CC(=O)N(Cc1ncc(C)o1)C1CCN(Cc2ccon2)C1` (stereo unspecified), the cytotoxicity at 70.5 h turned out to be 22.2%.

Turning to `CC(=O)N(Cc1noc(C)n1)C1CCN(Cc2ncc(C(C)C)o2)C1` (stereo unspecified), the cytotoxicity at 70.5 h was found to be 51.4%.

With `CC(=O)N(Cc1ncc(C)o1)C1CCN(Cc2csc(C)n2)C1` (stereo unspecified), the cytotoxicity at 70.5 h is -1.47%.

On to `CCn1cnnc1CNC(=O)N1CCN(CC(C)C)CC1`, for which the cytotoxicity at 70.5 h was -1.52%.

Consider `CC(=O)N(Cc1ncc(C)o1)C1CCN(Cc2cc(C)on2)C1` (stereo unspecified), for which the cytotoxicity at 70.5 h was -4.42%.

As to `Cc1cnn(CC2CCCN2C(=O)CCc2ccncc2)c1` (stereo unspecified), the cytotoxicity at 70.5 h was -1.24%.

Regarding `CCn1c(C)nnc1CN(C)C1CCN(CCS(=O)(=O)CC)C1` (stereo unspecified), the cytotoxicity at 70.5 h is -5.35%.

Take `O=C(CN(Cc1ccco1)C1CC1)N1CCCCCC1`: the cytotoxicity at 70.5 h was -1.39%.

Consider `CS(=O)(=O)NC1CCCN(C(=O)NCc2ccccc2Cl)C1` (stereo unspecified), for which the cytotoxicity at 70.5 h is -2.53%.

Consider `Cc1ccc(CNC(=O)N2CCCC(NS(C)(=O)=O)C2)cc1` (stereo unspecified), for which the cytotoxicity at 70.5 h was 2.89%.

Regarding `CCn1cnnc1CNC(=O)N1CCC(OCc2ccccc2)CC1`, the cytotoxicity at 70.5 h was -2.7%.

Turning to `CCn1cnnc1CNC(=O)N1CCN(CCc2ccccc2)CC1`, the cytotoxicity at 70.5 h is -2.4%.

Regarding `O=C(NCC(c1ccc(F)cc1)N1CCOCC1)Nc1cn[nH]c1` (stereo unspecified), the cytotoxicity at 70.5 h was found to be 18.9%.

As for `CC(=O)NC1CCCN(C(=O)NCc2cccnc2)C1` (stereo unspecified), the cytotoxicity at 70.5 h came to 0.9%.

Turning to `Cc1cccc(C(=O)N(C)C2CCN(c3ccccn3)CC2)c1C`, the cytotoxicity at 70.5 h stood at 2.5%.

Take `CN(C(=O)c1cccc(Cl)c1)C1CCN(c2ccccn2)CC1`: the cytotoxicity at 70.5 h is 2.1%.

For the compound `CCn1cnnc1CNC(=O)N1CCN(Cc2ccco2)CC1`, the cytotoxicity at 70.5 h turned out to be 1.5%.

In the case of `CCOc1ncccc1C(=O)N(C)C1CCN(c2ccccn2)CC1`, the cytotoxicity at 70.5 h came to 2.78%.

Take `COc1ccccc1C(=O)N(C)C1CCN(c2ccccn2)CC1`: the cytotoxicity at 70.5 h was -0.00253%.

In the case of `CCc1nc(C2CCCN(C(=O)NC(C)C)C2)no1` (stereo unspecified), the cytotoxicity at 70.5 h came to 21.2%.

Regarding `N#Cc1ccsc1C(=O)N1CCCN(Cc2cscn2)CC1`, the cytotoxicity at 70.5 h was 5.01%.

For `Cc1nc(C)n(CC2CN(CCC(=O)N3CCCCC3)CCO2)n1` (stereo unspecified), the cytotoxicity at 70.5 h was -6.29%.

`Cc1cn2c(n1)CCC(NC(=O)c1cncnc1C)C2` (stereo unspecified): the cytotoxicity at 70.5 h is -5.83%.

For the compound `COCCc1noc(CNCC2CCCN2c2cccnn2)n1` (stereo unspecified), the cytotoxicity at 70.5 h was 2.33%.

On to `CC(C)COC(C)C(=O)NCc1ccc(N(C)C)cc1` (stereo unspecified), for which the cytotoxicity at 70.5 h amounted to 7.68%.

Regarding `c1cnn(CC2CN(CCc3ccncc3)CCO2)c1` (stereo unspecified), the cytotoxicity at 70.5 h was -4.36%.

For `Cn1cnnc1C1CCCN(C(=O)c2ccccc2Cl)C1` (stereo unspecified), the cytotoxicity at 70.5 h is -4.06%.

Take `COc1ccc(Br)c(C(=O)NCCNc2ccc(C(F)(F)F)cn2)c1`: the cytotoxicity at 70.5 h is -13.7%.

With `COc1ccc(C(CNC(=O)Nc2cn[nH]c2)N2CCOCC2)cc1` (stereo unspecified), the cytotoxicity at 70.5 h is -4.89%.

Regarding `CC(C)COC(C)C(=O)NCc1ccc(OC(C)C)nc1` (stereo unspecified), the cytotoxicity at 70.5 h was -3.57%.

As to `COc1ccccc1CNC(=O)N1CCCC(NS(C)(=O)=O)C1` (stereo unspecified), the cytotoxicity at 70.5 h is 15.3%.

As for `COc1ccc(CNCc2c(C)nn(C)c2N2CCOCC2)cc1`, the cytotoxicity at 70.5 h is -3.63%.

Turning to `Cc1nc2c(c(C)c1CC(=O)Nc1cccc(C#N)c1)c(=O)[nH]n2C`, the cytotoxicity at 70.5 h was found to be 15.2%.

In the case of `CN(C(=O)c1cc(Cl)c[nH]1)C1CCN(c2ccccn2)CC1`, the cytotoxicity at 70.5 h is 8.18%.

As to `O=C(NCCS(=O)(=O)N1CCc2ccccc21)c1c(O)cc(F)cc1F`, the cytotoxicity at 70.5 h is -2.02%.

For the compound `Cc1cn2c(n1)CCC(NC(=O)c1cc(C(C)C)no1)C2` (stereo unspecified), the cytotoxicity at 70.5 h is -7.72%.

With `Cc1n[nH]c(C2CN(C(=O)c3cc(C4CC4)[nH]n3)CCO2)n1` (stereo unspecified), the cytotoxicity at 70.5 h stood at 4.51%.

In the case of `Cc1n[nH]c(C2CN(C(=O)c3cnc[nH]3)CCO2)n1` (stereo unspecified), the cytotoxicity at 70.5 h was -11.1%.

For `Cc1nc(CNCC2CCCN2c2cccnn2)no1` (stereo unspecified), the cytotoxicity at 70.5 h was -1.22%.

In the case of `COc1ccc(CCC(=O)N2CCCC2Cn2cc(C)cn2)cc1F` (stereo unspecified), the cytotoxicity at 70.5 h was -6.64%.

Consider `Fc1ccc(CN2CCCN(Cc3cscn3)CC2)cc1`, for which the cytotoxicity at 70.5 h was 23.4%.

Take `CCc1n[nH]c(C2CN(Cc3nccn3CC)CCO2)n1` (stereo unspecified): the cytotoxicity at 70.5 h was found to be 22.2%.

In the case of `Cn1cnnc1C1CCCN(C(=O)Cc2ccc3c(c2)OCCO3)C1` (stereo unspecified), the cytotoxicity at 70.5 h was 0.026%.

As to `O=C(CCNC(=O)c1ccoc1)Nc1c(F)cccc1F`, the cytotoxicity at 70.5 h was -1.23%.

Turning to `CCOc1ncccc1C(=O)N(C)Cc1ncc(C)c(OC)c1C`, the cytotoxicity at 70.5 h is -2.95%.

On to `c1ccc(CN2CCN(Cc3cscn3)CC2)cc1`, for which the cytotoxicity at 70.5 h was -6.7%.

As to `Cc1ccccc1CN1CCN(CC(=O)Nc2cccnc2)CC1`, the cytotoxicity at 70.5 h is 5.17%.

For the compound `O=C(CCCOc1ccc(F)cc1)N1CCCC(n2cccn2)C1` (stereo unspecified), the cytotoxicity at 70.5 h came out at 0.781%.

In the case of `O=C(CN1CCOC(Cn2cccn2)C1)Nc1nncs1` (stereo unspecified), the cytotoxicity at 70.5 h came to 34.7%.

For `Cc1nc(CN2CCN(CC(=O)Nc3c(C)cccc3C)CC2)no1`, the cytotoxicity at 70.5 h is -5.01%.

Take `CC(C)c1nccn1C1CCCN(C(=O)c2ccc3[nH]nnc3c2)C1` (stereo unspecified): the cytotoxicity at 70.5 h turned out to be 30.1%.

Regarding `Cc1ccc(CNC2CCCc3c2cnn3C)s1` (stereo unspecified), the cytotoxicity at 70.5 h was -4.42%.
